According to patent publication US7250414B2, “Diphenylmethyl compounds useful as muscarinic receptor antagonists” (Theravance, Inc., priority 2004, dated 2007):

Experiments:
[1] = system: pilocarpine-evoked salivation; test: Inhalation guinea pig salivation assay; type: in vivo
Method: Inhalation Guinea Pig Salivation Assay
Guinea pigs (Charles River, Wilmington, Mass.) weighing 200-350 g were acclimated to the in-house guinea pig colony for at least 3 days following arrival. Test compound or vehicle were dosed via inhalation (IH) over a 10 minute time period in a pie shaped dosing chamber (R&S Molds, San Carlos, Calif.). Test solutions were dissolved in sterile water and delivered using a nebulizer filled with 5.0 mL of dosing solution. Guinea pigs were restrained in the inhalation chamber for 30 minutes. During this time, guinea pigs were restricted to an area of approximately 110 sq. cm. […] Upon completion of nebulization, guinea pigs were evaluated at 1.5, 6, 12, 24, 48, or 72 hrs after treatment.
Guinea pigs were anesthetized one hour before testing with an intramuscular (IM) injection of a mixture of ketamine 43.75 mg/kg, xylazine 3.5 mg/kg, and acepromazine 1.05 mg/kg at an 0.88 mL/kg volume. […] Saliva was collected for 10 minutes, at which point the gauze pad was weighed and the difference in weight recorded to determine the amount of accumulated saliva (in mg). The mean amount of saliva collected for animals receiving the vehicle and each dose of test compound was calculated. […] Results were calculated using result means (n=3 or greater). Confidence intervals (95%) were calculated for each dose at each time point using two-way ANOVA. […]

[2] = molecular target: T1, hM3 muscarinic receptor subtype (Homo sapiens, UniProt P20309); test: Radioligand binding assay ([3H]-NMS displacement); settings: CHO cell membranes, [3H]-NMS at 1 nM, Cheng-Prusoff; read-out: Ki value for the M3 muscarinic receptor subtype
T1 construct: expressed in transfected cells; crude membranes prepared in house
T1 sequence (P20309 whole entry): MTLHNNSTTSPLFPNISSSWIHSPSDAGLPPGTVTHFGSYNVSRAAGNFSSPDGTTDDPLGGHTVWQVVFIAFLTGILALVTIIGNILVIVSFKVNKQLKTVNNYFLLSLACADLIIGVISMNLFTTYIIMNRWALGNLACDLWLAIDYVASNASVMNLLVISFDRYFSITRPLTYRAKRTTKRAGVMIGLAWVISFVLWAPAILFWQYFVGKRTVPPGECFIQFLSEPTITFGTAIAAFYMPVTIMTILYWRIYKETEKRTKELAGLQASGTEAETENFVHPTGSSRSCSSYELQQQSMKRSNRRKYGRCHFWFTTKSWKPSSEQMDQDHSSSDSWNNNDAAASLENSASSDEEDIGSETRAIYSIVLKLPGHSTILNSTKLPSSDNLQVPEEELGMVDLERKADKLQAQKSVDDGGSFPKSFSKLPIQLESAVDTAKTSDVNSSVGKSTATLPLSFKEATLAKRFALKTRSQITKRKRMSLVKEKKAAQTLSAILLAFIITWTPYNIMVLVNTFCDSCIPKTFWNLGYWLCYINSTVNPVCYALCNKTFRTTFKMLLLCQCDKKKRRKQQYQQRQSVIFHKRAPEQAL
Method: A. Membrane Preparation from Cells Expressing hM1, hM2, hM3 and hM4 Muscarinic Receptor Subtypes
CHO cell lines stably expressing cloned human hM1, hM2, hM3 and hM4 muscarinic receptor subtypes, respectively, were grown to near confluency in medium consisting of HAM's F-12 supplemented with 10% FBS and 250 μg/mL Geneticin. The cells were grown in a 5% CO2, 37° C. incubator and lifted with 2 mM EDTA in dPBS. Cells were collected by 5 minute centrifugation at 650×g, and cell pellets were either stored frozen at −80° C. or membranes were prepared immediately. For membrane preparation, cell pellets were suspended in lysis buffer and homogenized with a Polytron PT-2100 tissue disrupter (Kinematica AG; 20 seconds×2 bursts). […] The protein concentration of the membrane suspension was determined by the method described in Lowry, O. et al., […] 193:265 (1951). […]
Radioligand binding assays were performed in 96-well microtiter plates in a total assay volume of 100 μL. […] Filter plates were rinsed three times with wash buffer (10 mM HEPES) to remove unbound radioactivity. […] The plates were then counted in a PerkinElmer Topcount liquid scintillation counter (PerkinElmer Inc., Wellesley, Mass.). Binding data were analyzed by nonlinear regression analysis with the GraphPad Prism Software package (GraphPad Software, Inc., San Diego, Calif.) using the one-site competition model. […]

SMILES	apparent lung selectivity index (ratio of anti-sialagogue ID50 to bronchoprotective ID50) [1]	Ki [2]
CNCCc1ccc(CCN2CC[C@@H](C(C(N)=O)(c3ccccc3)c3ccccc3)C2)cc1 [Example 2, 2-((S)-1-{2-[4-(2-Methylaminoethyl)phenyl]ethyl}pyrrolidin-3-yl)-2,2-diphenyl-acetamide]	greater than 15	
Cc1cnc(CNCCc2ccc(CCN3CC[C@@H](C(C(N)=O)(c4ccccc4)c4ccccc4)C3)cc2)cn1 [Example 16, 2-{(S)-1-[2-(4-{2-[(5-methylpyrazin-2-ylmethyl)amino]ethyl}phenyl)ethyl]pyrrolidin-3-yl}-2,2-diphenylacetamide]		110 nM
